Test results from patent publication US6106866A, “In vivo agents comprising cationic drugs, peptides and metal chelators with acidic saccharides and glycosaminoglycans, giving improved site-selective localization, uptake mechanism, sensitivity and kinetic-spatial profiles, including tumor sites” (Access Pharmaceuticals, Inc., priority 1995, dated 2000).
Converted amounts (≈) assume the structure as drawn. “And” between values parts separate entries of the source, which are not always exact repeats. Equal entries are not always repeated. “Also recorded” adds a separate entry of the source. Each block holds one compound with its values, some of them ahead of it. No end group written: not given here. *: point of attachment. For = O=C*

Columns and labels:
[1] = Binding of complexes to heparin or sucrose octasulfate (dialysis, UV-Visible titration, solubilization)
Experimental: UV-Visible spectrophotometric titration indicates maximum binding occurs at a molar ratio of 18:1 (iron-porphine:heparin).
(a) To this resulting aqueous dispersion of complex is added beef lung heparin, to give final complex-to-heparin ratios of between 95:5 and 5:95 (by weight). […] This apparent solubilization is indicative of paired-ion binding between triethylenetetraamine-iron and heparin.
(b) To the aqueous dispersion of triethylenetetraamine-iron complex is added sucrose octasulfate (SOS), to give final complex-to-SOS ratios of between 95:5 and 5:95 (by weight).

[2] = test system: antithrombin III; conditions: cited from earlier work
[3] = physchem; conditions: water
From the text: (§1) Multiple batches of Ferrioxamine:Dermatan Sulfate Agent have been prepared.

[4] = Gd(III) when chelated by DTPA; cited from earlier work
[5] = test system: syngeneic breast adenocarcinoma; conditions: rat, in vivo, iv; cited from earlier work
[6] = Binding of active to dermatan sulfate carrier (dialysis retention, 500 MW cutoff); conditions: for paired-ion binding of peptide to dermatan sulfate: ca. 60:40 (active to dermatan sulfate)
Experimental: as §1
Vincristine (Sigma Chemical Co., St. Louis) is dissolved in water and mixed with dermatan sulfate at ratios of between 90:10 and 30:70 (w/w) drug to dermatan sulfate.
Amikacin, gentamicin and tobramycin (all obtained from Sigma Chemical Co., St. Louis) are dissolved in water and mixed with either dermatan sulfate (435 Type) or beef lung heparin (Hepar-Kabi-Pharmacia) at ratios of between 90:10 and 30:70 (w/w) drug to glycosaminoglycan.

[7] = test system: syngeneic breast adenocarcinoma; test: MRI contrast enhancement of breast adenocarcinoma inoculated in liver (and metastases); type: in vivo, Fisher 344 female rats; conditions: 7 MPI, 0.155 mmol/Kg i.v.
From the text: FIG. 2A, FIG. 2B, FIG. 3A, FIG. 3B, FIG. 4A, FIG. 4B, FIG. 4C, FIG. 4D and FIG. 8A, FIG. 8B and FIG. 8C show T1-weighted MRI images (TR/TE=800/45, 550/23 and 600/45) performed at 1.0 and 1.5 Tesla, before (Pre) and after (Post) intravenous (i.v.) injection of Ferrioxamine:Dermatan Sulfate Selective Paramagnetic Contrast Agent, prepared as in Examples 2 and 5, and injected i.v. at a Ferrioxamine dose of 0.155 mmol/Kg into Fisher 344 female rats, with syngeneic breast adenocarcinoma inoculated previously into the liver, such that tumor diameters at the time of imaging are between 1.0 cm and 2.5 cm.
(§2) Tumors are not conspicuous on standard T1-weighted Precontrast images. […] The sustained intervals shown in FIG. 8A, FIG. 8B and FIG. 8C are much longer than those typically reported for Gd:DTPA dimeglumine contrast enhancement at body organ sites.
T1-weighted MRI images (TR-TE=800/45) are performed at 1.0 Tesla, before (Pre) and after (Post) intravenous (i.v.) injection of Gd:MPD-DTPA:DS (DS=435 Type, Opocrin) at a dose of 0.155 mmol/kg into Fisher 344 female rats with syngeneic breast adenocarcinomas inoculated by trocar into the livers, as in Example 18 (above). A T2 scout image (TR/TE=2100/85) is performed in advance of the T1 image contrast series, in order to identify the approximate location(s) of tumor nodule(s) (FIG. 18A). […]

[8] = test system: syngeneic breast adenocarcinoma; test: Special histologic iron stain of breast adenocarcinoma; type: in vivo, Fisher 344 female rats; conditions: central tumor, 7-10 MPI
From the text: FIG. 6. Special histologic stain (heated ferroferricyanide reaction) of formalin-fixed section of syngeneic breast adenocarcinoma excised from liver inoculation site of Fisher 344 female rats: […] Sulfate Selective MRI Contrast Agent.
as §2

[9] = T1 relaxivity (R1), IBM PC20 Minispectrometer / ICP-AA metal measurement; type: physicochemical
Experimental: Batch quantities of the Fe(III) chelate of deferoxamine are prepared as follows. Deferoxamine mesylate (methanesulfonate) (Ciba-Geigy Limited, Basel, Switzerland), 390 g, is dissolved in pharmaceutical-grade water. Alternatively, the chloride salt of deferoxamine may be used. […] This final batch volume is adjusted as desired, typically to a final volume of 2600 mL. Any remaining trace amounts of unreacted Fe(O)OH are removed and the solution also made aseptic, by passing the supernatant through a 0.22 μm Millipore GV-type filter in a Class 100 laminar flow hood. The resulting batch is stored at 4° C. in an autoclaved, sealed glass container until further use (see Examples below). The final concentration of ferrioxamine (DFe) is determined once again by UV-Visible absorbance spectrophotometry at 430 nm.
The pH is adjusted to 7.0 by addition of 1.0 N NaOH. […] In the case of gadolinium oxide, neutralization with 1.0 N NaOH is not needed. […] This precipitate is rewashed with ethanol and centrifuged (as above), washed with acetone plus centrifuged, and the collected precipitate dried over a stream of dry nitrogen.

[10] = test system: acute myocardial infarct; test: MRI contrast enhancement of acute myocardial infarcts; type: in vivo, German Shepherd dogs; conditions: 0.155 mmol/Kg
From the text: FIG. 11A, FIG. 11B, FIG. 11C and FIG. 11D show T1-weighted MRI ECG-gated cardiovascular images performed at 0.5 Tesla, before (Pre) and after (Post) rapid intravenous (i.v.) infusion of Ferrioxamine:Dermatan Sulfate Selective Paramagnetic Contrast Agent prepared as in Examples 2 and 5, and injected i.v. at an Iron(III) dose of 0.155 mmol/Kg into German Shepherd dogs with acute, 90-min myocardial infarcts (ligature of proximal left anterior descending coronary artery) followed by reperfusion for ca. 90 minutes prior to contrast agent infusion.
In these studies, infarct sizes and positions are documented by double dye infusion performed immediately after MRI imaging.

[11] = comparison value; cited from earlier work
[12] = test system: AT-1 prostate adenocarcinoma; test: MRI contrast enhancement of AT-1 prostate adenocarcinoma; type: in vivo, Copenhagen rats
Experimental: (§3) FIG. 14A, FIG. 14B, FIG. 14C and FIG. 14D show MRI 4.7 Tesla, T1-weighted images of Copenhagen rats with the AT-1 prostate tumor model (as in FIG. 13A, FIG. 13B, FIG. 13C and FIG. 13D), but rats are injected i.v. with Ferrioxamine Selective Contrast Agent, wherein the Active is non-covalently bound to Oversulfated Dermatan Sulfate, the Agent lyophilized and reconstituted with water just prior to administration at a concentration of 0.332 mmol/mL Fe(III) and administered at the usual dose of 0.155 mmol of Fe(III) per Kg.
as §3, with “15A,” for “14A,”, “15B,” for “14B,”, “15C” for “14C”, “15D” for “14D”, “Chondroitin” for “Dermatan”
as §3, with “16A,” for “14A,”, “16B,” for “14B,”, “16C” for “14C”, “16D” for “14D”, “a non-anticoagulant GAG, Heparan” for “Oversulfated Dermatan”
FIG. 19A, FIG. 19B, FIG. 19C, FIG. 19D and FIG. 19E show T1-weighted images at 4.7 Tesla (TR/TE=250/8) of Copenhagen rats with syngeneic AT-1 prostate adenocarcinomas inoculated into previously prepared skin pouches [Hahn et al. (1993)], and imaged at diameters of 1.0-2.5 cm.
Based on low anticoagulant activity, safety and projected site-localizationpotential, certain alternative glycosaminoglycan carriers and certain alternative physical forms of the resulting Selective MRI Contrast Agents are compared for their relative in vivo potencies of carrier-mediated tumor localization of bound Ferrioxamine. Because of its high spatial resolution and capacity to detect subtle quantitative differences in agent localization, the AT-1 prostate tumor model of Example 19 is used.

Binding of iron-porphine to heparin [1]: ~100% | dialysis of iron-porphine alone [1]: nearly completely dialyzed | molar ratio at maximum binding (iron-porphine:heparin) [1]: 18:1
Compound: 5,10,15,20-tetrakis(1-methyl-4-pyridyl)-21H-23H-porphine [iron-porphine]

Compound: dermatan sulfate
inhibition of antithrombin III [2]: neither dermatan sulfate nor its 8-12 unit fragment inhibits

solubility [3]: 320 mg/mL (≈ 571 mM)
Compound: CC(=O)N(O)CCCCCNC(=O)CCC(=O)N(O)CCCCCNC(=O)CCC(=O)N(O)CCCCCN [deferoxamine]

Compound: O=C([O-])CN(CCN(CC(=O)[O-])CC(=O)O)CCN(CC(=O)[O-])CC(=O)O.[Gd+3] [Gd:DTPA]
in vitro R1 [4]: 4.0-4.3 [mmol.sec]^-1 | t1/2 at the site [5]: 12 to 20 min

Compound: CC[C@]1(O)C[C@H]2CN(CCc3c([nH]c4ccccc34)[C@@](C(=O)OC)(c3cc4c(cc3OC)N(C=O)[C@H]3[C@@](O)(C(=O)OC)[C@H](OC(C)=O)[C@]5(CC)C=CCN6CC[C@]43[C@@H]65)C2)C1 [Vincristine]
retention inside 500 MW cutoff dialysis bag [6]: not the drug alone

Compound: CC(=O)N([O-])CCCCCNC(=O)CCC(=O)N([O-])CCCCCNC(=O)CCC(=O)N([O-])CCCCCN.[Fe+3] [Ferrioxamine]
MRI contrast enhancement of breast tumor in liver [7]: only very slight or nonexistent | staining positivity for iron [8]: complete absence of staining positivity | R1 (T1 relaxivity) [9]: 1.5-1.8 [mmol.sec]^-1 and 1.6-1.8 [mmol.sec]^-1 and 1.6 (mmol.sec)^-1 | MRI enhancement of infarct, active without carrier [10]: no detectible enhancement | MRI enhancement of infarct, active without carrier ([10]; listed as Ferrioxamine Agent Alone): no detectable enhancement

Compound: arg-pro-pro-gly-phe-ser-pro-phe-arg (RPPGFSPFR; formulated with dermatan sulfate) [arginine bradykinin, basic peptide, formulated with dermatan sulfate]
paired-ion binding of peptide to dermatan sulfate [6]: Strong paired-ion binding

Compound: N-formyl-met-leu-phe-lys (For-MLFK) [basic white-cell chemoattractant peptide, formulated with dermatan sulfate]
paired-ion binding of peptide to dermatan sulfate [6]: Strong paired-ion binding | fluorescence on binding to dermatan sulfate ([6]; emission 518 nm, excitation 257 nm): fluorescence enhancement

Compound: CNC[C@H](O)[C@@H](O)[C@H](O)[C@H](O)CO.CNC[C@H](O)[C@@H](O)[C@H](O)[C@H](O)CO.O=C([O-])CN(CCN(CC(=O)[O-])CC(=O)O)CCN(CC(=O)[O-])CC(=O)O.[Gd+3] [Gd:DTPA dimeglumine]
LD50 [11]: 4.0 mmol/kg | MRI contrast enhancement of AT-1 tumor ([12]; 7 MPI): the outer rim is not well delineated | MRI contrast enhancement of AT-1 tumor ([12]; 20 MPI): Marked early contrast fading occurs overall in the tumor | MRI contrast enhancement of AT-1 tumor ([12]; 40 MPI): enhancement is nearly reverted to background levels; also recorded: enhancement reverts to essentially background levels | MRI contrast enhancement of AT-1 tumor ([12]; 60 MPI): no residual contrast, except for central cystic regions
